Experiments:
[1] = biological target: T1, B1R receptor of the rat (rB1R) (Rattus norvegicus, UniProt P97583); test: FLIPR Ca2+ assay on rB1R-transfected CHO K1 cells, antagonistic action; assay type: cell-based; conditions: CHO-K1, 10 μM test substance; agonist Des-Arg9-bradykinin 100 nM; % of maximum achievable inhibition; read-out: rB1R [10 μM] % inhibition
T1 construct: host or cells: CHO K1 cells
T1 sequence (P97583 1-337): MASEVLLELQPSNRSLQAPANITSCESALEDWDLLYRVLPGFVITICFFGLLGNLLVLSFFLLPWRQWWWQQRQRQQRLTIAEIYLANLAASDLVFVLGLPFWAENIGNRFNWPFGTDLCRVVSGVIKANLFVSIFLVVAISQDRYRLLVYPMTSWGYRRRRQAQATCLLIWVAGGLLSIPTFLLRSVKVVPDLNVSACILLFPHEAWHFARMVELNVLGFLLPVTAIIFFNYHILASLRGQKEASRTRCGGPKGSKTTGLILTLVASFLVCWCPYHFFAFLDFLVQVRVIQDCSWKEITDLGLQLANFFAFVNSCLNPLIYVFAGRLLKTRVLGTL

[2] = biological target: T2, human B1R receptor (hB1R) (Homo sapiens, UniProt P46663); test: FLIPR Ca2+ assay on hB1R-transfected CHO K1 cells, antagonistic action; assay type: cell-based; conditions: CHO-K1, 10 μM test substance; agonist Lys-Des-Arg9-bradykinin 0.5 nM; % of maximum achievable inhibition; read-out: hB1R [10 μM] % inhibition
T2 construct: host or cells: CHO K1 cells
T2 sequence (P46663 1-353): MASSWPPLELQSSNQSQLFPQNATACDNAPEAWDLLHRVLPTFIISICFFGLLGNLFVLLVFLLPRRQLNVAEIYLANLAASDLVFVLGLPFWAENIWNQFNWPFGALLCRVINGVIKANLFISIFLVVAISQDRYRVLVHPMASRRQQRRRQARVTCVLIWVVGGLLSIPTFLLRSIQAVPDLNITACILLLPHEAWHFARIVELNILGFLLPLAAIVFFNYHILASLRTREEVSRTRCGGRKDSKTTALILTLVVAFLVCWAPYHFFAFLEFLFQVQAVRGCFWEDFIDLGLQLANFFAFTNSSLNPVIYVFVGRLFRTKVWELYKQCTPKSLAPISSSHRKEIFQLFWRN

Row | SMILES | inhibition at 10 µM [1] [%] | inhibition at 10 µM [2] [%]
1 | Cc1cc(S(=O)(=O)N2CCCCC2CCC(=O)N(C)CCC2CCC(c3ccccc3)(N(C)C)CC2)c(C)cc1Cl (stereo not shown) [Compound 107, 3-(1-(4-chloro-2,5-dimethylphenylsulfonyl)piperidin-2-yl)-N-(2-(4-(dimethylamino)-4-phenylcyclohexyl)ethyl)-N-methylpropanamide] | 79 | 105
2 | COc1cc(C)c(S(=O)(=O)N(C)CCOCC(=O)N2CCC(c3cccc(F)c3)(N3CCN(C)CC3)CC2)c(C)c1 [Compound 210, N-(2-(2-(4-(3-Fluorophenyl)-4-(4-methylpiperazin-1-yl)piperidin-1-yl)-2-oxoethoxy)ethyl)-4-methoxy-N,2,6-trimethylbenzenesulfonamide] | 101 | 100
3 | COc1cc(C)c(S(=O)(=O)N2CCCCC2COCC(=O)N(C)CCCC2CCC(c3ccccc3)(N3CCC3)CC2)c(C)c1 (stereo not shown) [Compound 205, N-(3-(4-(azetidin-1-yl)-4-phenylcyclohexyl)propyl)-2-((1-(4-methoxy-2,6-dimethylphenylsulfonyl)piperidin-2-yl)methoxy)-N-methylacetamide] | 100 | 100
4 | O=C(COCC1CCCN1S(=O)(=O)c1c(Cl)cc(Cl)cc1Cl)NC1CCC(Cc2ccccc2)(N2CCCC2)CC1 (stereo not shown) [Compound 156, N-(4-benzyl-4-(pyrrolidin-1-yl)cyclohexyl)-2-((1-(2,4,6-trichlorophenylsulfonyl)pyrrolidin-2-yl)methoxy)acetamide] | 100 | 76
5 | CN(CCC1CCC(Cc2ccccc2)(N(C)C)CC1)C(=O)COCC1CCc2ccccc2N1S(=O)(=O)c1ccc(Cl)c(Cl)c1 (stereo not shown) [Compound 61, N-(2-(4-benzyl-4-(dimethylamino)cyclohexyl)ethyl)-2-((1-(3,4-dichlorophenylsulfonyl)-1,2,3,4-tetrahydroquinolin-2-yl)methoxy)-N-methylacetamide] | 100 | 49
6 | COc1cc(C)c(S(=O)(=O)N(C)CCOCC(=O)N(C)CCC2CCC(CCc3ccccc3)(N(C)C)CC2)c(C)c1 (stereo not shown) [Compound 52, N-(2-(4-(dimethylamino)-4-phenethylcyclohexyl)ethyl)-2-(2-(4-methoxy-N,2,6-trimethylphenylsulfonamido)ethoxy)-N-methylacetamide] | 100 | 104
7 | COc1cc(C)c(S(=O)(=O)N2CCCCC2CCOCC(=O)N2CCC(c3cccc(F)c3)(N3CCN(C)CC3)CC2)c(C)c1 (stereo not shown) [Compound 227, 1-(4-(3-Fluorophenyl)-4-(4-methylpiperazin-1-yl)piperidin-1-yl)-2-(2-(1-(4-methoxy-2,6-dimethylphenylsulfonyl)piperidin-2-yl)ethoxy)ethanone] | 99 | 100
8 | Cc1cc(S(=O)(=O)N2CCCCC2CCC(=O)N2CCC(c3cccc(F)c3)(N3CCN(C)CC3)CC2)c(C)cc1Cl (stereo not shown) [Compound 135, 3-(1-(4-chloro-2,5-dimethylphenylsulfonyl)piperidin-2-yl)-1-(4-(3-fluorophenyl)-4-(4-methylpiperazin-1-yl)piperidin-1-yl)propan-1-one] | 37 | 104
9 | COc1cc(C)c(S(=O)(=O)N2CCCC2COCC(=O)NC2CCC(Cc3ccccc3)(N3CCOCC3)CC2)c(C)c1 (stereo not shown) [Compound 159, N-(4-benzyl-4-morpholinocyclohexyl)-2-((1-(4-methoxy-2,6-dimethylphenylsulfonyl)pyrrolidin-2-yl)methoxy)acetamide] | 98 | 45
10 | COc1cc(C)c(S(=O)(=O)N2CCCCC2CCCC(=O)N2CCC(c3cccc(F)c3)(N3CCN(C)CC3)CC2)c(C)c1 (stereo not shown) [Compound 214, 1-(4-(3-Fluorophenyl)-4-(4-methylpiperazin-1-yl)piperidin-1-yl)-4-(1-(4-methoxy-2,6-dimethylphenylsulfonyl)piperidin-2-yl)butan-1-one] | 101 | 99
11 | COc1cc(C)c(S(=O)(=O)N(C)CCOCC(=O)N2CCC(c3ccc(F)cc3)(N3CCN(C)CC3)CC2)c(C)c1 [Compound 42, N-(2-(2-(4-(4-fluorophenyl)-4-(4-methylpiperazin-1-yl)piperidin-1-yl)-2-oxoethoxy)ethyl)-4-methoxy-N,2,6-trimethylbenzenesulfonamide] | 101 | 105
12 | COc1cc(C)c(S(=O)(=O)N(C)CCOCC(=O)N(C)CC2CCC(CCc3ccccc3)(N3CCN(C)CC3)CC2)c(C)c1 (stereo not shown) [Compound 165, 2-(2-(4-methoxy-N,2,6-trimethylphenylsulfonamido)ethoxy)-N-methyl-N-((4-(4-methylpiperazin-1-yl)-4-phenethylcyclohexyl)methyl)acetamide] | 90 | 103
13 | COc1cc(C)c(S(=O)(=O)N2CCCC2COCC(=O)NCC2CCC(Cc3ccccc3)(N3CCOCC3)CC2)c(C)c1 (stereo not shown) [Compound 169, N-((4-benzyl-4-morpholinocyclohexyl)methyl)-2-((1-(4-methoxy-2,6-dimethylphenylsulfonyl)pyrrolidin-2-yl)methoxy)acetamide] | 86 | 41
14 | CN1CCN(C2(c3ccccc3)CCN(C(=O)CC3CCCCN3S(=O)(=O)c3cccc(C(F)(F)F)c3)CC2)CC1 (stereo not shown) [Compound 64, 1-(4-(4-methylpiperazin-1-yl)-4-phenylpiperidin-1-yl)-2-(1-(3-(trifluoromethyl)phenylsulfonyl)piperidin-2-yl)ethanone] | 100 | 84
15 | COc1cc(C)c(S(=O)(=O)N2CCCCC2COCC(=O)N(C)CC2CCC(CCc3ccccc3)(N3CCCC3)CC2)c(C)c1 (stereo not shown) [Compound 51, 2-((1-(4-methoxy-2,6-dimethylphenylsulfonyl)piperidin-2-yl)methoxy)-N-methyl-N-((4-phenethyl-4-(pyrrolidin-1-yl)cyclohexyl)methyl)acetamide] | 100 | 102
16 | O=C(COC1CCN(S(=O)(=O)c2c(Cl)cc(Cl)cc2Cl)C1)NC1CCC(c2ccccc2)(N2CCCC2)CC1 (stereo not shown) [Compound 178, N-(4-phenyl-4-(pyrrolidin-1-yl)cyclohexyl)-2-(1-(2,4,6-trichlorophenylsulfonyl)pyrrolidin-3-yloxy)acetamide] | 76 | 53
17 | COc1cc(C)c(S(=O)(=O)N2CCCCC2COCC(=O)N(C)CCCC2CCC(c3ccccc3)(N3CCCC3)CC2)c(C)c1 (stereo not shown) [Compound 32, 2-((1-(4-methoxy-2,6-dimethylphenylsulfonyl)piperidin-2-yl)methoxy)-N-methyl-N-(3-(4-phenyl-4-(pyrrolidin-1-yl)cyclohexyl)propyl)acetamide] | 102 | 104
18 | Cc1cc(S(=O)(=O)N2CCCCC2CCC(=O)N(C)CCCC2CCC(c3ccccc3)(N3CCCC3)CC2)c(C)cc1Cl (stereo not shown) [Compound 136, 3-(1-(4-chloro-2,5-dimethylphenylsulfonyl)piperidin-2-yl)-N-methyl-N-(3-(4-phenyl-4-(pyrrolidin-1-yl)cyclohexyl)propyl)propanamide] | 32 | 99
19 | CN(CCC1CCC(c2ccccc2)(N(C)C)CC1)C(=O)CC(NS(=O)(=O)c1ccc2ccccc2c1)c1ccccc1 (stereo not shown) [Compound 90, N-(2-(4-(dimethylamino)-4-phenylcyclohexyl)ethyl)-N-methyl-3-(naphthalene-2-sulfonamido)-3-phenylpropanamide] | 97 | 97
20 | Cc1cc(S(=O)(=O)N2CCCCC2CCC(=O)N2CCC(c3ccccc3)(N3CCN(c4ccncc4)CC3)CC2)c(C)cc1Cl (stereo not shown) [Compound 99, 3-(1-(4-chloro-2,5-dimethylphenylsulfonyl)piperidin-2-yl)-1-(4-phenyl-4-(4-(pyridin-4-yl)piperazin-1-yl)piperidin-1-yl)propan-1-one] | 90 | 100
21 | COc1cc(C)c(S(=O)(=O)N(C)CCOCC(=O)NC2CCC(c3ccccc3)(N3CCOCC3)CC2)c(C)c1 (stereo not shown) [Compound 167, 2-(2-(4-methoxy-N,2,6-trimethylphenylsulfonamido)ethoxy)-N-(4-morpholino-4-phenylcyclohexyl)acetamide] | 88 | 100
22 | CN1CCN(C2(Cc3ccccc3)CCN(C(=O)CC(NS(=O)(=O)c3ccc4ccccc4c3)c3ccccc3)CC2)CC1 (stereo not shown) [Compound 118, N-(3-(4-benzyl-4-(4-methylpiperazin-1-yl)piperidin-1-yl)-3-oxo-1-phenylpropyl)naphthalene-2-sulfonamide] | 69 | 101
23 | COc1cc(C)c(S(=O)(=O)N2CCCCC2COCC(=O)NC2CCC(c3ccccc3)(N3CCCC3)CC2)c(C)c1 (stereo not shown) [Compound 147, 2-((1-(4-methoxy-2,6-dimethylphenylsulfonyl)piperidin-2-yl)methoxy)-N-(4-phenyl-4-(pyrrolidin-1-yl)cyclohexyl)acetamide] | 108 | 94
